# Where two headings read alike, the source gives them in different places.
# Legend:
# human DGKα = target: T1, human DGKα (Homo sapiens, UniProt P23743); experiment: DGKα LIPGLO assay (extruded liposome substrate), in vitro DGK inhibition; type: biochemical; details: read-out: DGKa LIPGLO IC50
# T1 construct: TVMV protease cleavage site (C); Hexa-His (C); made in house; host or cells: Sf9 insect cells (baculovirus, Bac-to-Bac)
# Human venous whole blood = experiment: Human whole blood IFN-γ assay; type: cell-based; details: human whole blood, read-out: INFg Whole Blood Normalized Agonist EC50;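 also: blood from healthy donors exposed to compound for 1 h before stimulation with anti-CD3 and anti-CD28 at 1 µg/mL each, IFN-γ quantified in supernatant by AlphaLISA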
# Description: Human Whole Blood IFN-γ Assay
# Human venous whole blood (22.5 μL per well), obtained from healthy donors, was pre-treated with compounds for one hour at 37° C. in a humidified 95% air/5% CO2 incubator. The blood was stimulated with 2.5 μL anti-human CD3 and anti-CD28 mAb at a final concentration of 1 μg/mL each for 24 hours at 37° C. IFN-γ in the supernatants was measured using AlphLISA kit (Cat # AL217).
# human DGKζ = target: T2, human DGKζ (Homo sapiens, UniProt Q13574); experiment: DGKζ LIPGLO assay (extruded liposome substrate), in vitro DGK inhibition; type: biochemical; details: read-out: DGKz LIPGLO IC50
# T2 construct: TVMV protease cleavage site (C); Hexa-His (C); made in house; host or cells: Sf9 insect cells (baculovirus, Bac-to-Bac)
# [1] = normalized to 3 μM reference compound with anti-CD3 plus anti-CD28 as 100% activation
# [2] = Homo sapiens, 24 h, anti-CD3 plus anti-CD28, 24 hours, 3 μM reference compound = 100% activation
# [3] = Homo sapiens, 24 h, normalized to 3 μM reference compound with anti-CD3 plus anti-CD28 as 100% activation
# [4] = anti-CD3 plus anti-CD28, 24 hours, 3 μM reference compound = 100% activation
# T1 sequence (P23743 with tags, fused parts or gaps): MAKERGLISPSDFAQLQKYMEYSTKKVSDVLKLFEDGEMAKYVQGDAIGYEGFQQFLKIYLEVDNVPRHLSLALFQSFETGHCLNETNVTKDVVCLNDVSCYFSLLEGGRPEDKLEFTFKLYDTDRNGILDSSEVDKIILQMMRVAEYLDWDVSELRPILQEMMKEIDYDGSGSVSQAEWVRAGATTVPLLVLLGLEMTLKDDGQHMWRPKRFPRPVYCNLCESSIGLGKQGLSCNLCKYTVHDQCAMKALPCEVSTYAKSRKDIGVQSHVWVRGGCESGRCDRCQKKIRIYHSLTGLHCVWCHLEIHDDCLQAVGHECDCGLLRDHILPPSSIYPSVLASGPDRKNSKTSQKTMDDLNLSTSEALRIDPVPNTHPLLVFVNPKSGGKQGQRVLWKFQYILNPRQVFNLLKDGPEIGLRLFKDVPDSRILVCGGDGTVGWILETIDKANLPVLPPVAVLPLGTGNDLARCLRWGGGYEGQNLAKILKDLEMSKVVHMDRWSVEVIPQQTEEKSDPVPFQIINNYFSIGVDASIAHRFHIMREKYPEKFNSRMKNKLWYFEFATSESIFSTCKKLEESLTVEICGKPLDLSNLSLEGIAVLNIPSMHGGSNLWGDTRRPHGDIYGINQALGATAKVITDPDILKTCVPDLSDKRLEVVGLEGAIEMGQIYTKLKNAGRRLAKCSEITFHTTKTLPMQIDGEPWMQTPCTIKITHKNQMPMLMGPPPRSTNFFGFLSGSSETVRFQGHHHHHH
# T2 sequence (Q13574 with tags, fused parts or gaps isoform Q13574-4): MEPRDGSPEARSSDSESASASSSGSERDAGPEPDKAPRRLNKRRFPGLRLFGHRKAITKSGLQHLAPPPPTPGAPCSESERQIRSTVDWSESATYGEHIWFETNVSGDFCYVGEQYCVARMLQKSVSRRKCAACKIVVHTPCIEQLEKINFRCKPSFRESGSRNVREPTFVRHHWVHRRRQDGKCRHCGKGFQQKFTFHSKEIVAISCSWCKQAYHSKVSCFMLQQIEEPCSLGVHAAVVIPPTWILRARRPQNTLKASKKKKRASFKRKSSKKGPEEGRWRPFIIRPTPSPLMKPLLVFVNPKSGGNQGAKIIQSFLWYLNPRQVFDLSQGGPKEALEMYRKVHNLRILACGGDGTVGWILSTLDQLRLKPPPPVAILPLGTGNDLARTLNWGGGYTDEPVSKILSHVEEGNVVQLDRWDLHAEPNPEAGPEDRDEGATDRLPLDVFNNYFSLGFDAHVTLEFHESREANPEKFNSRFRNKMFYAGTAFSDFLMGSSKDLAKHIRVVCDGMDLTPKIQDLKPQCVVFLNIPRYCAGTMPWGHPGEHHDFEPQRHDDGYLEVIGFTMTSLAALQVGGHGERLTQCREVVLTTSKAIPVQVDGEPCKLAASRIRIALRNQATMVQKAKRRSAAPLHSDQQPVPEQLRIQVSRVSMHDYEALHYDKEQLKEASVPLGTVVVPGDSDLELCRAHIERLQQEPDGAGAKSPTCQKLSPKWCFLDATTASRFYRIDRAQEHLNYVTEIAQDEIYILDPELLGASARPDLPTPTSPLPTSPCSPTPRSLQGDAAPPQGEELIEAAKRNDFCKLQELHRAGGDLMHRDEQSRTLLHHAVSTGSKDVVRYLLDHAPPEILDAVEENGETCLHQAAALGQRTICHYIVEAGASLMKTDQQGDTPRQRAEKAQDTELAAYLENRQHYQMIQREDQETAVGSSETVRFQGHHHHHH
Structure (SMILES),IC50 (human DGKα; liposome (LIPGLO) assay) [nM],EC50 (Human venous whole blood; [1]) [nM],IC50 (human DGKζ; liposome (LIPGLO) assay) [nM],IC50 (human DGKα; DGKα liposome (LIPGLO) assay) [nM],EC50 (Human venous whole blood; [2]) [nM],IC50 (human DGKζ; DGKζ liposome (LIPGLO) assay) [nM],EC50 (Human venous whole blood; [3]) [nM],EC50 (Human venous whole blood; [4]) [nM]
"C[C@@H]1CN(c2cc(=O)n(C)c3ccc(C#N)nc23)[C@@H](C)CN1C(c1ccc(F)cc1)c1cccc(S(C)(=O)=O)c1 (single isomer, unassigned) [Example 688]",83000,13000,24000,–,–,–,–,–
C[C@@H]1CN(c2c(C#N)c(=O)n(C)c3ccc(C#N)nc23)[C@@H](C)CN1C(c1ccccc1)c1ccc(F)cc1 (stereo partly drawn) [Example 807],–,–,–,5000,2500,2600,–,–
"CC(c1ccc(OC(C)(C)C)cc1)N1C[C@H](C)N(c2cc(=O)n(C)c3ccc(C#N)nc23)C[C@H]1C (single isomer, unassigned) [Example 1441]",20000,5400,4800,–,–,–,–,–
"CC[C@H]1CN(C(C)c2ccc(C(F)(F)F)cc2)[C@H](CC)CN1c1cc(=O)n(C)c2ccc(C#N)nc12 (single isomer, unassigned) [Example 1052]",2500,190,2000,–,–,–,–,–
"Cc1ccc(C(c2cccc3c2OCCCO3)N2C[C@H](C)N(c3cc(=O)n(C)c4ccc(C#N)nc34)C[C@H]2C)nc1 (single isomer, unassigned) [Example 469]",1700,3200,510,–,–,–,–,–
"Cc1ccc(C(c2ccc(C)c(Cl)c2)N2C[C@H](C)N(c3cc(=O)n(C)c4ccc(C#N)nc34)C[C@H]2C)nc1 (stereo partly drawn) [Example 399, 8-((2S,5R)-4-((3-chloro-4-methylphenyl)(5-methylpyridin-2-yl)methyl)-2,5-dimethylpiperazin-1-yl)-5-methyl-6-oxo-5,6-dihydro-1,5-naphthyridine-2-carbonitrile]",2300,570,690,–,–,–,–,–
COc1ccc(C(C)N2C[C@H](C)N(c3cc(=O)n(C)c4ccc(C#N)nc34)C[C@H]2C)cc1C(F)(F)F (stereo partly drawn) [Example 1249],51000,–,640,–,–,–,17000,–
"CC[C@H]1CN(C(c2ccc(F)cc2)c2ccc(C(F)(F)F)cn2)[C@H](C)CN1c1cc(=O)n(C)c2ccc(C#N)nc12 (single isomer, unassigned) [Example 1131]",73,430,180,–,–,–,–,–
C[C@H]1CN(C(c2ccc(F)cc2)c2ccc(F)cc2)[C@H](CN2CC(O)C2)CN1c1cc(=O)n(C)c2ccc(C#N)nc12 [Example 1168],83000,–,60000,–,–,–,20000,–
C[C@H]1CN(Cc2ccc3c(c2)OC(F)(F)O3)[C@H](CO)CN1c1cc(=O)n(C)c2ccc(C#N)nc12 [Example 1390],4000,–,15000,–,–,–,14000,–
C[C@@H]1CN(c2cc(=O)n(C)c3ccc(C#N)nc23)[C@@H](C)CN1Cc1ccc(OC(F)F)cc1F [Example 590],330,–,5100,–,–,–,1900,–
COc1ccc(C(C)N2C[C@H](C)N(c3cc(=O)n(C)c4ccc(C#N)nc34)C[C@H]2C)cc1OCCN1CCOCC1 (stereo partly drawn) [Example 1305],130000,–,7500,–,–,–,20000,–
"CC[C@H]1CN(C(C)c2ccc(OC)cc2)[C@H](CC)CN1c1cc(=O)n(C)c2ccc(C#N)nc12 (single isomer, unassigned) [Example 1366]",24,11,15,–,–,–,–,–
C[C@@H]1CN(c2cc(=O)n(C)c3ccc(C#N)nc23)[C@@H](C)CN1Cc1cnoc1 [Example 1428],34000,–,53000,–,–,–,20000,–
COc1ccc(C(c2ccc(F)cc2)N2C[C@H](C)N(c3cc(=O)n(C)c4ccc(C#N)nc34)C[C@H]2C)cc1 (stereo partly drawn) [Example 658],690,1500,590,–,–,–,–,–
"C[C@@H]1CN(c2c(C#N)c(=O)n(C)c3ccc(C#N)nc23)[C@@H](C)CN1C(c1ccc(F)cc1)c1cc(C(C)(C)C)on1 (single isomer, unassigned) [Example 866]",–,–,–,390,–,940,–,2300
"C[C@H]1CN(C(c2ccc(F)cc2)c2ccon2)[C@H](CO)CN1c1cc(=O)n(C)c2ccc(C#N)nc12 (single isomer, unassigned) [Example 1392]",1900,14000,3800,–,–,–,–,–
"CC(C)c1nnc(C(c2ccc(F)cc2)N2C[C@H](C)N(c3cc(=O)n(C)c4ccc(C#N)nc34)C[C@H]2C)s1 (single isomer, unassigned) [Example 773]",–,–,–,760,–,700,–,7900
"CC(c1ccc2nccnc2c1)N1C[C@H](C)N(c2cc(=O)n(C)c3ccc(C#N)nc23)C[C@H]1C (single isomer, unassigned) [Example 650]",2500,290,11,–,–,–,–,–

Structure (SMILES),IC50 (human DGKα; liposome (LIPGLO) assay) [nM],EC50 (Human venous whole blood; [1]) [nM],IC50 (human DGKζ; liposome (LIPGLO) assay) [nM],IC50 (human DGKα; DGKα liposome (LIPGLO) assay) [nM],EC50 (Human venous whole blood; [2]) [nM],IC50 (human DGKζ; DGKζ liposome (LIPGLO) assay) [nM],EC50 (Human venous whole blood; [3]) [nM],EC50 (Human venous whole blood; [4]) [nM]
CC[C@H]1CN(C(c2ccc(F)cc2)c2ccc(F)cc2)[C@H](C)CN1c1cc(=O)n(C)c2ccc(C#N)nc12 [Example 1118],400,–,580,–,–,–,360,–
"C[C@@H]1CN(c2cc(=O)[nH]c3ccc(C#N)nc23)[C@@H](C)CN1C(c1ccc(F)cc1)c1ccc(C#N)cc1 (stereo partly drawn) [Example 1336, 8-((2S,5R)-4-((4-cyanophenyl)(4-fluorophenyl)methyl)-2,5-dimethylpiperazin-1-yl)-6-oxo-5,6-dihydro-1,5-naphthyridine-2-carbonitrile]",1800,–,14000,–,–,–,11000,–
"COc1ccc(C(C)N2C[C@H](C)N(c3cc(=O)n(C)c4ccc(C#N)nc34)C[C@H]2C)nc1 (single isomer, unassigned) [Example 644]",160,3800,500,–,–,–,–,–
"CCC(c1ccc(OCC2CC2)cc1)N1C[C@H](C)N(c2cc(=O)n(C)c3ccc(C#N)nc23)C[C@H]1C (stereo partly drawn) [Example 1439, 8-((2S,5R)-4-(1-(4-(cyclopropylmethoxy)phenyl)propyl)-2,5-dimethylpiperazin-1-yl)-5-methyl-6-oxo-5,6-dihydro-1,5-naphthyridine-2-carbonitrile]",200,–,650,–,–,–,250,–
"CC(C)c1nnc(C(c2ccc(F)cc2)N2C[C@H](C)N(c3cc(=O)n(C)c4ccc(C#N)nc34)C[C@H]2C)s1 (single isomer, unassigned) [Example 772]",–,–,–,4.7,–,27,–,1400
"CC(c1nc(C2CC2)no1)N1C[C@H](C)N(c2c(C#N)c(=O)n(C)c3ccc(C#N)nc23)C[C@H]1C (single isomer, unassigned) [Example 1306]",9400,–,1100,–,–,–,2900,–
"C[C@@H]1CN(c2c(F)c(=O)n(C)c3ccc(C#N)nc23)[C@@H](C)CN1C(c1ccc(Cl)cc1)c1ccc(OC(F)(F)F)cc1 (stereo partly drawn) [Example 324, 8-((2S,5R)-4-((4-chlorophenyl)(4-(trifluoromethoxy)phenyl)methyl)-2,5-dimethylpiperazin-1-yl)-7-fluoro-5-methyl-6-oxo-5,6-dihydro-1,5-naphthyridine-2-carbonitrile]",1200,4700,4100,–,–,–,–,–
"CC(c1ccccc1C(F)(F)F)N1CCN(c2c(C#N)c(=O)n(C)c3ccc(C#N)nc23)C[C@H]1C (single isomer, unassigned) [Example 966]",–,–,–,61000,20000,> 250000,–,–
"CCC(c1ccc(C2CC2)cc1)N1C[C@H](C)N(c2cc(=O)n(C)c3ccc(C#N)nc23)C[C@H]1C (single isomer, unassigned) [Example 1221]",850,4200,2700,–,–,–,–,–
"C[C@@H]1CN(c2c(C#N)c(=O)n(C)c3ccc(C#N)nc23)CCN1C(c1ccc(F)cc1)c1cncn1C (single isomer, unassigned) [Example 1019]",–,–,–,32000,–,5900,–,20000
"C[C@@H]1CN(c2cc(=O)n(C)c3ccc(C#N)nc23)[C@@H](C)CN1C(c1ccc(C#N)cc1)c1ccc(F)cn1 (single isomer, unassigned) [Example 463]",330,3700,4600,–,–,–,–,–
CC(c1ccc(F)c(F)c1)N1CCN(c2c(C#N)c(=O)n(C)c3ccc(C#N)nc23)C[C@H]1C (stereo partly drawn) [Example 956],–,–,–,780,4000,7500,–,–
C[C@@H]1CN(c2c(C#N)c(=O)n(C)c3ccc(C#N)nc23)CCN1Cc1ccccc1Cl [Example 997],–,–,–,1100,20000,3300,–,–
"Cc1ccc(C(c2cccc(F)c2)N2C[C@H](C)N(c3cc(=O)n(C)c4ccc(C#N)nc34)C[C@H]2C)cn1 (single isomer, unassigned) [Example 395]",48000,6300,7800,–,–,–,–,–
"COCC(c1ccc(C(F)(F)F)cn1)N1C[C@H](C)N(c2cc(=O)n(C)c3ccc(C#N)nc23)C[C@H]1C (single isomer, unassigned) [Example 1277]",69,–,610,–,–,–,1400,–
"C[C@@H]1CN(c2c(C#N)c(=O)n(C)c3ccc(C#N)nc23)CCN1C(c1ccc(Cl)cc1)c1ccc2c(c1)OC(F)(F)O2 (single isomer, unassigned) [Example 942]",–,–,–,26000,–,2800,–,20000
C[C@@H]1CN(c2cc(=O)n(C)c3ccc(C#N)nc23)[C@@H](C)CN1Cc1ccc(OC(F)(F)F)c(Br)c1 [Example 629],11000,–,18000,–,–,–,4200,–
Cc1ccc(CN2CCN(c3c(C#N)c(=O)n(C)c4ccc(C#N)nc34)C[C@H]2C)cc1F [Example 1002],–,–,–,2700,5500,4700,–,–

# — US10669272B2, “Substituted naphthyridinone compounds useful as T cell activators” (BRISTOL-MYERS SQUIBB COMPANY, priority 2018, dated 2020)
